Data on two molecules can be found in patent US9974763B2, “Modulators of intracellular chloride concentration for treating neurodegenerative diseases with Parkinsonian Syndromes” (B & A THERAPEUTICS, priority 2013, dated 2018).

Molecules are shown by their SMILES. Like-named read-outs stand apart in the source and are kept apart here.

The subject of data set [1] is GABAA sPSCs in Medium Spiny Neurons (MSNs) of the striatum in Pink 1 knockout mice. Put plainly: Whole-cell voltage-clamp recordings of spontaneous GABAA currents in basal ganglia slices before and during bath application of bumetanide. The format is cell-based, mouse. The following applies: for effect on the giant GABAergic pattern (in words): 10 μM; for area gigantic pattern (% of the total area) / giant GABAA sPSCs share of total current charge, Mean: before bumetanide 38±5%; for Giants Amplitude, Mean: P=0.01 vs before bumetanide. How it is done: Pink 1 knockout (Pink1 −/−) mouse is a genetic model of Parkinson's disease.
Pink1 −/− mutant mice of either sex at age 5-7 months were intracardially perfused with the choline solution (see below) at 4° C. and sacrificed by decapitation under halothane anesthesia. Oblique parasagittal slices (380 μm thick) were cut with an angle of 10±2° to obtain the basal ganglia slice (BGS) as described in (Beurrier et al., 2006). For the slicing procedure, the ice-cold oxygenated solution contained (in mM) 110 choline, 2.5 KCl, 1.25 NaH2PO4, 7 MgCl2, 0.5 CaCl2, 25 NaHCO3, 7 glucose. During the recovery period, BGS were placed at room temperature with standard artificial cerebrospinal fluid (ACSF) saturated with 95% O2 5% CO2 and containing (in mM): 126 NaCl, 3.5 KCl, 1.2 NaH2PO4, 1.3 MgCl2, 2 CaCl2, 25 NaHCO3, 11 glucose.
All recordings were made at 32° C. Cells were visualized with infrared-differential interference optics (Axioskop2, Zeiss). For whole-cell voltage-clamp recordings of postsynaptic GABAA currents, the pipette (6-10 MΩ) contained (in mM): 128.5 K-gluconate, 11.5 KCl, 1 CaCl2, 10 EGTA, 10 HEPES, 2.5 MgATP and 0.3 NaGTP, pH 7.32, 280 mOsm. The KGlu pipette solutions gave a reversal potential for chloride close to −63 mV at 35° C. Biocytin (Sigma, 5 mg/ml) was added to the pipette solution and osmolarity corrected when necessary. We performed patch-clamp recordings in whole cell configuration using the Digidata 1344A interface, the Multiclamp 700A amplifier and PClamp8 software (Axon Instruments, Foster City, Calif.). We identified medium spiny neurons (MSNs) during recordings based on their typical rectification during hyperpolarizing steps and their firing delay in response to depolarizing steps. MSNs were also identified by their morphological characteristics after the recording session (see immunocytochemistry). We measured spontaneous GABAA currents (GABAA sPSCs) from MSNs in voltage clamp mode at the reversal potential for glutamatergic (+10 mV) events (Cossart et al., 2000). These currents were stored on Pclamp8 (Axon Instruments, Foster City, Calif., USA) and analyzed off-line with Mini Analysis program (Synaptosoft 6.0, CA, USA), Clampfit 9.2, Origin 5.0 and Autosignal 1.7 to determine the frequency and amplitude of GABAA sPSCs. All detected currents were then visually inspected to reject artefactual events.
We defined as a burst a minimum of five sPSCs associated with a baseline elevation. More than five giant events and three bursts were required during the three min analysis for the pattern to be deemed “oscillatory”. The current charge was automatically calculated by the Mini Analysis Software as the area under the curve value (taking the onset, peak and decay time points as references for each event).
GABAA sPSCs were recorded from identified MSNs before and during bath application of Bumetanide.
For statistical comparison of data we performed paired t-tests. Error bars indicate SEM. ***P<0.001; ns (non-significant).

Data set [2] relates to patient suffering from Parkinson's disease. The following applies: for UPDRS motor severity score (III) in the OFF stage: after 2 months of bumetanide, last four weeks at 5 mg/d; for UPDRS II OFF (activities of daily leaving, worst condition) score: at the end of the study. From the text: A person, suffering from a 10-year history of Parkinson's disease was included in an open-labeled trial assessing the antiparkinsonian effects of bumetanide. They gave their informed consent to participate. The patient fulfilled the modified Queen's Square Brain Bank criteria of Parkinson's disease (Berardelli et al., 2013). […] Parkinson's disease was at the stage of motor fluctuation and dyskinesia. The OFF periods (bad mobility) lasted for an average of 25-50% of the awakened time. Dyskinesia was mild and intermittent. There was no marked balance impairment or cognitive decline. Antiparkinsonian treatment consisted in: L-DOPA 1,200 mg/d (7 intakes/d), ropinirole 4 mg/d, rasagiline 1 mg/d, tolcapone 300 mg/d. They also received mianserine, citalopram and alprazolam for concomitant anxiety and depression. Bumetanide was progressively titrated up to 3 mg/d (once daily) received for a month. […] The patient was assessed before, 1 month and 2 months after the initiation of bumetanide. At each visit, the patient was asked about any side effects having occurred since the last visit. […] The antiparkinsonian treatment was unchanged during the study. A person, having a 8-year history of Parkinson's disease was included in an open-labeled trial assessing the antiparkinsonian effects of bumetanide. The OFF periods (bad mobility) lasted for an average of 25-50% of the awakened time. Antiparkinsonian treatment consisted in: L-DOPA 625 mg/day (5 intakes/day), entacapone 1,000 mg/day, ropinirole 12 mg/day. Bumetanide: was progressively titrated up to 3 mg/day (once daily) received for a month. […] The patients were assessed before, 1 month and 2 months after the initiation of bumetanide. At each visit, the patient was asked about any side effects having occurred since the last visit. […] The antiparkinsonian treatment was unchanged during the study.

The subject of data set [3] is GABAA sPSCs in Medium Spiny Neurons (MSNs) of the striatum in Pink 1 knockout mice. The note with it: Dehorter et al 2012; cited from earlier work.
Setting [4] is: bumetanide 10 μM, 15-30 min, Pink1 KO MSNs.
Setting [5] is: bumetanide 10 μM, 15-30 min, Pink1 KO MSNs, listed as Bume.
Setting [6] is: bumetanide 10 μM, 15-30 min, n=42 events.
Setting [7] is: bumetanide 10 μM, 15-30 min, three min analysis.

In the case of `CCCCNc1cc(C(=O)O)cc(S(N)(=O)=O)c1Oc1ccccc1` [Bumetanide, bumetanide], the “effect on the giant GABAergic pattern (in words)” value in data set [1] (15-30 min, Pink1 KO MSNs) is recorded as “blocked the giant pattern”; in data set [1] (15-30 min, Pink1 KO MSNs, listed as bumetanide), “block these gigantic currents completely”. Moreover, the “time of treatment after which the effect was stable” value in data set [1] (bath application, final concentration 10 μM) stood at 15 min. In addition, in data set [1] (bumetanide 10 μM bath, 15-30 min, Pink1 KO MSNs with giant pattern, VH=+10 mV), the “TOTAL AREA, Mean” value was 290 pA · ms. The “Pink1 KO MSNs showing giant GABAA PSCs in which the block was observed” value in data set [1] (bumetanide 10 μM, 15-30 min) is recorded as 10/10. Besides, the “effect on bursts of GABAA sPSCs (in words)” value in data set [1] (bumetanide 10 μM, 15-30 min) was “totally disappeared”. In addition, the “mean frequency of single giant GABAA sPSCs” value in data set [1] (bumetanide 10 μM, 15-30 min, P=0.02 vs before bumetanide) is on record as 0.10±0.05 Hz. Moreover, the “Tonic pattern: Amplitude of GABAA PSCs, Mean” value in data set [1] (setting [4]) was found to be 36±4 pA; in data set [1] (setting [5]) it was 36.0 pA. The “Tonic pattern: Frequency of GABAA PSCs, Mean” value is given as 2.9±0.5 Hz in data set [1] (setting [4]) and 2.9 Hz in data set [1] (setting [5]). In addition, the “mean total current charge” value in data set [1] (bumetanide 10 μM, 15-30 min, Pink1 KO MSNs, before bumetanide 566±74) was found to be 290±70 nA·ms. Also, the “basal events between giants, share of the total current charge” value in data set [1] (bumetanide 10 μM, 15-30 min, before 62±5%, P=0.0003) stood at 90±3%. Moreover, the “area gigantic pattern (% of the total area) / giant GABAA sPSCs share of total current charge, Mean” value in data set [1] (bumetanide 10 μM, 15-30 min, P=0.0003) is reported as 11.7±3.9%; in data set [1] (bumetanide 10 μM, 15-30 min, P=0.0003, listed as Bume) it was 11.7%. Also, the “range of amplitude of single giant GABAA sPSCs” value in data set [1] (setting [6]) is reported as 203-593 pA. For the same molecule, the “Giants Amplitude, Mean” value in data set [1] (setting [6]) stood at 338.2±22.5 pA; in data set [1] (bumetanide 10 μM, 15-30 min, n=42 events, listed as Bume), 338.2 pA. Besides, the “Giants Frequency, Mean” value in data set [1] (bumetanide 10 μM, 15-30 min, table value, unit not given) worked out at 0.10. The “n bursts, Mean” value in data set [1] (setting [7]) turned out to be 0.2. In data set [1] (setting [7]), the “n giants (>200 pA), Mean” value was determined as 5.6. Besides, the “decrease of the mean total current charge” value in data set [1] (bumetanide 10 μM, 15-30 min vs before bumetanide, P=0.0002) came to 49%. Besides, in data set [1] (bumetanide 10 μM, versus 237 before bumetanide), the “number of individual giant GABAA sPSCs still present during the three-minutes sequence analyzed” value came to 42 events. In addition, the dyskinesia entry in data set [2] (human, in vivo) is reported as “no worsening”. The “overall improvement evaluated by the patient and the caregiver” value in data set [2] (patient 1) is listed as “about 30%”. For the same molecule, the “improvement (decrease) of UPDRS motor (III) score in the OFF stage” value in data set [2] (patient 1, 2 months vs before treatment) turned out to be 34%. The “UPDRS motor severity score (III) in the OFF stage” value in data set [2] (patient 1, 44 before treatment) stood at 29; in data set [2] (patient 2, 25 before treatment), 11. Further, in data set [2] (patient 1, after 2 weeks at 5 mg/d), the “motor condition / Parkinsonism as noticed by the patient and their caregiver” value is given as “marked improvement”. Also, the OFF time duration entry in data set [2] (patient 1, after 2 weeks at 5 mg/d, baseline 25-50%) is “less than 25 % of the awakened time”. For the same molecule, the “UPDRS II OFF (activities of daily leaving, worst condition) score” value in data set [2] (patient 1, 30 at baseline) is on record as 18; in data set [2] (patient 2, 15 at baseline) it was 10. In addition, the “improvement (decrease) of UPDRS II in the worst condition” value in data set [2] (patient 1, end of study vs baseline) worked out at 40%. Moreover, the “UPDRS II in the best condition” value in data set [2] (patient 1, score 0) is on record as “unchanged”; in data set [2] (patient 2, 2 vs 3) it was “unchanged”. The “improvement of UPDRS motor severity score (III) in the OFF stage” value in data set [2] (patient 2, 2 months vs before treatment) came out at 56%. Further, in data set [2] (patient 2, end of study vs baseline), the “improvement of UPDRS II in the worst condition” value stood at 33%.
`N[C@@H](Cc1ccc(O)c(O)c1)C(=O)O` [L Dopa]: in data set [3], the “effect on the gigantic current pattern (in words)” value is reported as “alleviate this pattern”.
